Target: T1, β-secretase (BACE) (Homo sapiens, UniProt P56817)
T1 construct: purchased Panvera
Experiment: BACE FS1% Inhibition Assay (Example 160)
Type: biochemical
Method: The following reagents were used in this assay: sodium acetate, PEB8000 (Sigma), DMSO, HEPES, FS1 substrate [[…]], β-secretase (BACE) (Panvera), and 96-well plate (HE microplate, Molecular Devices). […] The FS1-substrate stock solution was prepared in DMSO as a 10 mg/mL solution. The FS1-substrate working solution was prepared by diluting the 10 mg/mL stock solution with substrate assay buffer to a final concentration of 300 μg/mL. The β-secretase (BACE) working solution was prepared by diluting a 0.83 mg/mL BACE stock solution with enzyme assay buffer to a final concentration of 4 μg/mL. Test compounds were dissolved in DMSO to 10 mM. […] The screening procedure for this assay was as follows: 15 μL of BACE working solution was pipetted into each well of a 96-well plate. To each well was the pipetted 2 μL of test compound at the selected concentration. Test compound and BACE were then mixed with a pipettor and incubated for 20 min at room temperature. To each well was then added 10 μL of the FS1 substrate working solution. The plates were then incubated for 1 hour at room temperature. […] The procedure for the blank was as follows. 15 μL of assay buffer was pipetted into each well to be used as a blank control. To each well was then added 2 μL of vehicle and 10 μL of FS1-substrate working solution. The plates were then incubated for 1 hour at room temperature. […] The procedure for the positive control was as follows: 15 μL of BACE working solution was pipetted into each well to be used as a positive control. To each well was then pipetted 2 μL of vehicle. Vehicle and BACE were then mixed with a pipettor and incubated for 20 min at room temperature. To each well was then added 10 μL of the FS1 substrate working solution. The plates were then incubated for 1 hour at room temperature. […] For test compounds, % inhibition was determined at each concentration as follows: [formula]

T1 sequence (P56817 46-501): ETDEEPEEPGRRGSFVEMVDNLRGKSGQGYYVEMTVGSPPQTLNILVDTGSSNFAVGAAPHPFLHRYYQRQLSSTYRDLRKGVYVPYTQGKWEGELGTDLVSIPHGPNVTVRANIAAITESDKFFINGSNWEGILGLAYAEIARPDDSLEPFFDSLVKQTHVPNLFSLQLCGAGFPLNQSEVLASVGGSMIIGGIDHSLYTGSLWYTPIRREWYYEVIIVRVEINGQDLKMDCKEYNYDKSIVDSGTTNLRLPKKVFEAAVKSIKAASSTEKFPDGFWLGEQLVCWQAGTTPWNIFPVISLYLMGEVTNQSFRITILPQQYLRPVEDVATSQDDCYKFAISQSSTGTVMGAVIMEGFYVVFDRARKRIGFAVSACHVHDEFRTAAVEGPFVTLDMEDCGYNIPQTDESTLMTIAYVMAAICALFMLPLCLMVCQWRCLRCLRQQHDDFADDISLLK

Row | Compound | % Inhibition (FS) (0.3 μM test compound) [%] | % Inhibition (FS) (1 μM test compound) [%] | % Inhibition (FS) (3 μM test compound) [%]
1 | CCCC(=O)NCCN1Cc2cc(-c3cnc4ccccc4c3)ccc2N=C1N [Compound 673] | 34 | <30 | <30
2 | COc1cccc(F)c1-c1ccc2c(c1)CN(CCNC(=O)C1CCOCC1)C(N)=N2 [Compound 699] | 31 | 64 | 93
3 | CC(C)(C)C(=O)NCCN1Cc2cc(-c3ccc4ccccc4c3)ccc2N=C1N [Compound 667] | 33 | <30 | <30
4 | CN(CCc1ccccc1)C(=O)CC[C@@H](C1CCCCC1)N1Cc2cc(-c3ccccc3F)ccc2N=C1N [Compound 727] | 46 | 80 | 
5 | CN(Cc1cc(-c2ccccc2)on1)C(=O)CC[C@@H](C1CCCCC1)N1Cc2cc(-c3ccccc3F)ccc2N=C1N [Compound 724] | 38 | <30 | 65
6 | CC(CC(=O)NCCN1Cc2cc(-c3ccccc3)ccc2N=C1N)C(F)(F)F (stereo not shown) [Compound 685] | 50 | 90 | 
7 | CN(Cc1cccc(CC(=O)O)c1)C(=O)CCC(C1CCCCC1)N1Cc2cc(Oc3ccccc3)ccc2N=C1N (stereo not shown) [Compound 778] | <30 | 77 | 
8 | NC1=Nc2ccc(-c3ccccc3Cl)cc2CN1CCNC(=O)CCC(F)(F)F [Compound 682] | 39 | 77 | 97
9 | COC(=O)[C@H](COCc1ccccc1)N(C)C(=O)CC[C@@H](C1CCOCC1)N1Cc2cc(Oc3ccccc3)ccc2N=C1N [Compound 786] | 97 |  | 
10 | NC1=Nc2ccc(-c3ccccc3F)cc2CN1CCNC(=O)CCC(F)(F)F [Compound 680] | 42 | 75 | 90
11 | NC1=Nc2ccc(-c3ccc4ccccc4c3)cc2CN1CCNC(=O)C12CC3CC(CC(C3)C1)C2 [Compound 665] | 35 | <30 | <30
12 | CC(C)CCC(=O)NCCN1Cc2cc(-c3cnc4ccccc4c3)ccc2N=C1N [Compound 675] | 35 | <30 | <30
13 | NC1=Nc2ccc(-c3ccc4ccccc4c3)cc2CN1CCNC(=O)C1CCCC1 [Compound 664] | <30 | <30 | <30
14 | CN(CCC#N)C(=O)CC[C@@H](C1CCCCC1)N1Cc2cc(-c3ccccc3F)ccc2N=C1N [Compound 725] | 33 | 74 | 126
15 | CC(=O)N1CCC(C(=O)NCCN2Cc3cc(-c4ccccc4Cl)ccc3N=C2N)CC1 [Compound 691] | <30 | <30 | 51
16 | COC1CCCC(C(=O)NCCN2Cc3cc(-c4ccccc4C)ccc3N=C2N)C1 (stereo not shown) [Compound 696] | <30 | 72 | 
17 | CN(C(=O)CCC(C1CCCCC1)N1Cc2cc(Oc3ccccc3)ccc2N=C1N)C1CCC(C#N)CC1 (stereo not shown) [Compound 769] | <30 | 61 | 
18 | COc1ccccc1-c1ccc2c(c1)CN([C@@H](CCC(=O)N(C)Cc1csc(-c3ccccc3)n1)C1CCCCC1)C(N)=N2 [Compound 716] | <30 | <30 | 72
19 | NC1=Nc2ccc(-c3cnc4ccccc4c3)cc2CN1CCNC(=O)C12CC3CC(CC(C3)C1)C2 [Compound 672] | <30 | <30 | <30
20 | NC1=Nc2ccc(-c3ccccc3F)cc2CN1CCNC(=O)C1CCOCC1 [Compound 687] | <30 | 50 | 87
21 | COC1CCCC(C(=O)NCCN2Cc3cc(C4=CCCC4)ccc3N=C2N)C1 (stereo not shown) [Compound 706] | <30 | <30 | <30
22 | COC1CCCC(C(=O)NCCN2Cc3cc(-c4ccccc4)ccc3N=C2N)C1 (stereo not shown) [Compound 703] | <30 | 46 | 83
23 | NC1=Nc2ccc(-c3cnc4ccccc4c3)cc2CN1CCNC(=O)C1CCCC1 [Compound 671] | <30 | 30 | <30

Results, then the compound that gave them:

Row | % Inhibition (FS) (0.3 μM test compound) [%] | % Inhibition (FS) (1 μM test compound) [%] | % Inhibition (FS) (3 μM test compound) [%] | Compound
24 | 36 | <30 | 41 | CC(C)(C)C(=O)NCCN1Cc2cc(-c3cnc4ccccc4c3)ccc2N=C1N [Compound 674]
25 | 78 | 99 |  | Cc1ccccc1-c1ccc2c(c1)CN(CCNC(=O)CC(C)C(F)(F)F)C(N)=N2 (stereo not shown) [Compound 679]
26 | 33 | <30 | 44 | CCCCC(CC)C(=O)NCCN1Cc2cc(-c3cnc4ccccc4c3)ccc2N=C1N (stereo not shown) [Compound 676]
27 | <30 | 71 |  | CN(CC(=O)O)C(=O)CCC(C1CCCCC1)N1Cc2cc(Oc3ccccc3)ccc2N=C1N (stereo not shown) [Compound 767]
28 | <30 | <30 | <30 | CN(C(=O)CCC(C1CCCCC1)N1Cc2cc(Oc3ccccc3)ccc2N=C1N)c1ccc(C(=O)O)cc1 (stereo not shown) [Compound 766]
29 | <30 | <30 | 52 | NC1=Nc2ccc(-c3ccccc3Cl)cc2CN1CCNC(=O)C1CCC(C(F)(F)F)CC1 (stereo not shown) [Compound 690]
30 | <30 | <30 | <30 | CC(=O)N1CCC(C(=O)NCCN2Cc3cc(C4=CCCCC4)ccc3N=C2N)CC1 [Compound 705]
31 | 38 | 97 |  | COC(=O)C1CCCC(N(C)C(=O)CCC(C2CCCCC2)N2Cc3cc(Oc4ccccc4)ccc3N=C2N)C1 (mixture of isomers) [Compound 777]
32 | 65 | 96 | 120 | NC1=Nc2ccc(Oc3ccccc3)cc2CN1CCNC(=O)C1(c2ccc(Cl)cc2)CCCC1 [Compound 196]
33 | −48 | −38 | −25 | CN(C(=O)CCC(C1CCCCC1)N1Cc2cc(Oc3ccccc3)ccc2N=C1N)C1(C(=O)O)CCCCC1 (stereo not shown) [Compound 741]
34 | <30 | 36 | 85 | COc1cccc(F)c1-c1ccc2c(c1)CN(CCNC(=O)C1CCC(C(F)(F)F)CC1)C(N)=N2 (stereo not shown) [Compound 700]
35 | 106 | 118 | 128 | CC(C)C(CNC(=O)C12CC3CC(CC(C3)C1)C2)N1Cc2cc(Oc3ccccc3)ccc2N=C1N (stereo not shown) [Compound 562]
36 | <30 | <30 | 54 | CC(=O)N1CCC(C(=O)NCCN2Cc3cc(-c4ccccc4C)ccc3N=C2N)CC1 [Compound 695]
37 | 33 | 82 |  | NC1=Nc2ccc(-c3ccccc3Cl)cc2CN1CCNC(=O)C1CCOCC1 [Compound 689]
38 | 51 | 88 | 99 | Cc1ccccc1-c1ccc2c(c1)CN(CCNC(=O)CCC(F)(F)F)C(N)=N2 [Compound 678]
